# What was measured:
# primary human T-cells = assay: Cytokine secretion on protein level in activated primary human T-cells (13-plex FACS / Luminex, supernatant); type: cell-based; details: for IL-1 cytokine concentration / IL-2 cytokine concentration / IL-4 cytokine concentration / IL-5 cytokine concentration / IL-6 cytokine concentration / IL-9 cytokine concentration / IL-10 cytokine concentration / IL-12p70 cytokine concentration / IL-13 cytokine concentration / IL-17 cytokine concentration / IL-22 cytokine concentration / TNF-α cytokine concentration / INF-α cytokine concentration: substance 10^−9M
# In short: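 Cytokine protein in supernatant is read by multiplex FACS or Luminex. Tripeptide-treated HaCaT cells or blood-derived human T-cells are stimulated beforehand with PMA/Ionomycin or IFN-γ. The most relevant analytes are IL-1, IL-2, IL-6, IL-12p70, IL-17, IFN-γ and TNF-α, sampled 48 h and 72 h after stimulation.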
# [1] = tested on: human keratinocyte cell line (HaCaT); assay: Cytokine secretion on protein level in activated human keratinocyte cell line HaCaT (13-plex FACS / Luminex, supernatant); type: cell-based; details: for IL-1 cytokine concentration / IL-2 cytokine concentration / IL-4 cytokine concentration / IL-5 cytokine concentration / IL-6 cytokine concentration / IL-9 cytokine concentration / IL-10 cytokine concentration / IL-12p70 cytokine concentration / IL-13 cytokine concentration / IL-17 cytokine concentration / IL-22 cytokine concentration / TNF-α cytokine concentration / IFN-γ cytokine concentration: substance 10^−9M
# In short: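 Stimulus: PMA/Ionomycin or IFN-γ, 48 h; cells: HaCaT or human peripheral-blood T-cells; tripeptide treatment; readout: supernatant cytokines via 13-plex FACS or Luminex, 48–72 h post-stimulation.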
# primary murine T-cells = assay: Cytokine secretion on protein level in activated primary murine T-cells (13-plex FACS / Luminex, supernatant); type: cell-based, C57BL/6 mice; details: substance 10^−9M
# In short: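 T-cells from secondary lymphatic organs of naïve C57BL/6 mice, stimulated with PMA/Ionomycin or IFN-γ; supernatant cytokines measured by 13-plex FACS 48 h and 72 h after stimulation. In another run, PMA/Ionomycin-stimulated cells received compounds at 10^−7, 10^−9 and 10^−11 M, with IFN-γ, IL-17 and IL-10 measured by Luminex.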
# [2] = primary human T-cells stimulated with IFN-γ
# [3] = primary human T-cells stimulated with PBS
# [4] = primary human T-cells stimulated with PMA/Ionomycin
# [5] = HaCaT stimulated with PMA/Ionomycin
# [6] = primary murine T-cells stimulated with IFN-γ
# [7] = primary murine T-cells stimulated with PBS
# [8] = primary murine T-cells stimulated with PMA/Ionomycin
substance,measurement,setting,value
"N^α,N^α-dimethyl-(L)-Nle-(D)-Pro-N^α-methyl-(L)-Thr-OH [Example 6]",secretion / expression of pro-inflammatory cytokines (supernatant),primary human T-cells; activated primary human T-cells,decreased expression
same,IL-1 cytokine concentration,primary human T-cells; [2],0 pg/mL
same,IL-2 cytokine concentration,primary human T-cells; [2],0 pg/mL
same,IL-4 cytokine concentration,primary human T-cells; [2],76.04 pg/mL
same,IL-5 cytokine concentration,primary human T-cells; [2],0 pg/mL
same,IL-6 cytokine concentration,primary human T-cells; [2],45.83 pg/mL
same,IL-9 cytokine concentration,primary human T-cells; [2],0 pg/mL
same,IL-10 cytokine concentration,primary human T-cells; [2],51.86 pg/mL
same,IL-12p70 cytokine concentration,primary human T-cells; [2],0 pg/mL
same,IL-13 cytokine concentration,primary human T-cells; [2],46.95 pg/mL
same,IL-17 cytokine concentration,primary human T-cells; [2],36.76 pg/mL
same,IL-22 cytokine concentration,primary human T-cells; [2],0 pg/mL
same,TNF-α cytokine concentration,primary human T-cells; [2],17.44 pg/mL
same,IL-1 cytokine concentration,primary human T-cells; [3],107.12 pg/mL
same,IL-2 cytokine concentration,primary human T-cells; [3],114.93 pg/mL
same,IL-5 cytokine concentration,primary human T-cells; [3],12.74 pg/mL
same,IL-6 cytokine concentration,primary human T-cells; [3],105.53 pg/mL
same,IL-9 cytokine concentration,primary human T-cells; [3],8.15 pg/mL
same,IL-10 cytokine concentration,primary human T-cells; [3],92.62 pg/mL
same,IL-12p70 cytokine concentration,primary human T-cells; [3],0 pg/mL
same,IL-13 cytokine concentration,primary human T-cells; [3],0 pg/mL
same,IL-17 cytokine concentration,primary human T-cells; [3],113.52 pg/mL
same,IL-22 cytokine concentration,primary human T-cells; [3],0 pg/mL
same,INF-α cytokine concentration,primary human T-cells; [3],0 pg/mL
same,TNF-α cytokine concentration,primary human T-cells; [3],28.11 pg/mL
same,IL-1 cytokine concentration,primary human T-cells; [4],533.57 pg/mL
same,IL-2 cytokine concentration,primary human T-cells; [4],2005.81 pg/mL
same,IL-4 cytokine concentration,primary human T-cells; [4],87.24 pg/mL
same,IL-5 cytokine concentration,primary human T-cells; [4],312.5 pg/mL
same,IL-6 cytokine concentration,primary human T-cells; [4],1194.58 pg/mL
same,IL-9 cytokine concentration,primary human T-cells; [4],238.28 pg/mL
same,IL-10 cytokine concentration,primary human T-cells; [4],999.32 pg/mL
same,IL-12p70 cytokine concentration,primary human T-cells; [4],0 pg/mL
same,IL-13 cytokine concentration,primary human T-cells; [4],1050.19 pg/mL
same,IL-17 cytokine concentration,primary human T-cells; [4],1388.88 pg/mL
same,IL-22 cytokine concentration,primary human T-cells; [4],0 pg/mL
same,INF-α cytokine concentration,primary human T-cells; [4],7597.87 pg/mL
same,TNF-α cytokine concentration,primary human T-cells; [4],2638.52 pg/mL
same,IL-1 cytokine concentration,[1]; HaCaT stimulated with IFN-γ,0 pg/mL
same,IL-2 cytokine concentration,[1]; HaCaT stimulated with IFN-γ,17.47 pg/mL
same,IL-4 cytokine concentration,[1]; HaCaT stimulated with IFN-γ,0 pg/mL
same,IL-5 cytokine concentration,[1]; HaCaT stimulated with IFN-γ,0 pg/mL
same,IL-6 cytokine concentration,[1]; HaCaT stimulated with IFN-γ,202.37 pg/mL
same,IL-9 cytokine concentration,[1]; HaCaT stimulated with IFN-γ,0 pg/mL
same,IL-10 cytokine concentration,[1]; HaCaT stimulated with IFN-γ,0 pg/mL
same,IL-12p70 cytokine concentration,[1]; HaCaT stimulated with IFN-γ,0 pg/mL
same,IL-13 cytokine concentration,[1]; HaCaT stimulated with IFN-γ,1872.11 pg/mL
same,IL-17 cytokine concentration,[1]; HaCaT stimulated with IFN-γ,0 pg/mL
same,IL-22 cytokine concentration,[1]; HaCaT stimulated with IFN-γ,0 pg/mL
same,TNF-α cytokine concentration,[1]; HaCaT stimulated with IFN-γ,0 pg/mL
same,IFN-γ cytokine concentration,[1]; HaCaT stimulated with PBS,0 pg/mL
same,IL-1 cytokine concentration,[1]; HaCaT stimulated with PBS,25.45 pg/mL
same,IL-2 cytokine concentration,[1]; HaCaT stimulated with PBS,0 pg/mL
same,IL-4 cytokine concentration,[1]; HaCaT stimulated with PBS,91.99 pg/mL
same,IL-5 cytokine concentration,[1]; HaCaT stimulated with PBS,0 pg/mL
same,IL-6 cytokine concentration,[1]; HaCaT stimulated with PBS,52.48 pg/mL
same,IL-9 cytokine concentration,[1]; HaCaT stimulated with PBS,0 pg/mL
same,IL-10 cytokine concentration,[1]; HaCaT stimulated with PBS,57.95 pg/mL
same,IL-12p70 cytokine concentration,[1]; HaCaT stimulated with PBS,0 pg/mL
same,IL-13 cytokine concentration,[1]; HaCaT stimulated with PBS,0 pg/mL
same,IL-17 cytokine concentration,[1]; HaCaT stimulated with PBS,26.72 pg/mL
same,IL-22 cytokine concentration,[1]; HaCaT stimulated with PBS,0 pg/mL
same,TNF-α cytokine concentration,[1]; HaCaT stimulated with PBS,8.21 pg/mL
same,IFN-γ cytokine concentration,[1]; [5],0 pg/mL
same,IL-1 cytokine concentration,[1]; [5],62.07 pg/mL
same,IL-2 cytokine concentration,[1]; [5],16.53 pg/mL
same,IL-4 cytokine concentration,[1]; [5],0 pg/mL
same,IL-5 cytokine concentration,[1]; [5],0 pg/mL
same,IL-6 cytokine concentration,[1]; [5],248.33 pg/mL
same,IL-9 cytokine concentration,[1]; [5],3.71 pg/mL
same,IL-10 cytokine concentration,[1]; [5],64.03 pg/mL
same,IL-12p70 cytokine concentration,[1]; [5],0 pg/mL
same,IL-13 cytokine concentration,[1]; [5],0 pg/mL
same,IL-17 cytokine concentration,[1]; [5],21.52 pg/mL
same,IL-22 cytokine concentration,[1]; [5],0 pg/mL
same,TNF-α cytokine concentration,[1]; [5],5.37 pg/mL
same,secretion / expression of pro-inflammatory cytokines (supernatant),[1]; activated human keratinocytes,decreased expression
same,IL-1 cytokine concentration,primary murine T-cells; [6],95.15 pg/mL
same,IL-2 cytokine concentration,primary murine T-cells; [6],181.25 pg/mL
same,IL-4 cytokine concentration,primary murine T-cells; [6],156.84 pg/mL
same,IL-5 cytokine concentration,primary murine T-cells; [6],517.47 pg/mL
same,IL-6 cytokine concentration,primary murine T-cells; [6],223.98 pg/mL
same,IL-10 cytokine concentration,primary murine T-cells; [6],1782.7 pg/mL
same,IL-13 cytokine concentration,primary murine T-cells; [6],0 pg/mL
same,IL-17 cytokine concentration,primary murine T-cells; [6],189.88 pg/mL
same,IL-21 cytokine concentration,primary murine T-cells; [6],251.06 pg/mL
same,IL-22 cytokine concentration,primary murine T-cells; [6],73.27 pg/mL
same,IL-27 cytokine concentration,primary murine T-cells; [6],0 pg/mL
same,TNF-α cytokine concentration,primary murine T-cells; [6],40.87 pg/mL
same,IFN-γ cytokine concentration,primary murine T-cells; [7],546.71 pg/mL
same,IL-1 cytokine concentration,primary murine T-cells; [7],106.27 pg/mL
same,IL-2 cytokine concentration,primary murine T-cells; [7],204.71 pg/mL
same,IL-4 cytokine concentration,primary murine T-cells; [7],39.23 pg/mL
same,IL-5 cytokine concentration,primary murine T-cells; [7],407.29 pg/mL
same,IL-6 cytokine concentration,primary murine T-cells; [7],170.46 pg/mL
same,IL-10 cytokine concentration,primary murine T-cells; [7],1391.3 pg/mL
same,IL-13 cytokine concentration,primary murine T-cells; [7],0 pg/mL
same,IL-17 cytokine concentration,primary murine T-cells; [7],0 pg/mL
same,IL-21 cytokine concentration,primary murine T-cells; [7],0 pg/mL
same,IL-22 cytokine concentration,primary murine T-cells; [7],16.55 pg/mL
same,IL-27 cytokine concentration,primary murine T-cells; [7],108.06 pg/mL
same,TNF-α cytokine concentration,primary murine T-cells; [7],0 pg/mL
same,IFN-γ cytokine concentration,primary murine T-cells; [8],8164.35 pg/mL
same,IL-1 cytokine concentration,primary murine T-cells; [8],486.85 pg/mL
same,IL-2 cytokine concentration,primary murine T-cells; [8],218.69 pg/mL
same,IL-4 cytokine concentration,primary murine T-cells; [8],164.69 pg/mL
same,IL-5 cytokine concentration,primary murine T-cells; [8],380.37 pg/mL
same,IL-6 cytokine concentration,primary murine T-cells; [8],237.95 pg/mL
same,IL-10 cytokine concentration,primary murine T-cells; [8],988.64 pg/mL
same,IL-13 cytokine concentration,primary murine T-cells; [8],0 pg/mL
same,IL-17 cytokine concentration,primary murine T-cells; [8],200.32 pg/mL
same,IL-21 cytokine concentration,primary murine T-cells; [8],470.65 pg/mL
same,IL-22 cytokine concentration,primary murine T-cells; [8],85.67 pg/mL
same,IL-27 cytokine concentration,primary murine T-cells; [8],95.51 pg/mL
same,TNF-α cytokine concentration,primary murine T-cells; [8],72.81 pg/mL

# Reference: patent publication US10954269B2, “Anti-inflammatory tripeptides” (Dr. August Wolff Gmbh & Co. KG Arzneimittel, priority 2013, dated 2021)
